Measurements published in patent US5484786A, “Pyran-4-ylmethyl substituted arylalkylaryl-, arylalkenylylaryl-, and arylalkynylarylurea inhibitors of 5-lipoxygenase” (Abbott Laboratories, priority 1993, dated 1996).
One block for each compound: values may come before it.

Target: T1, 5-Lipoxygenase (Homo sapiens, UniProt P09917)
T1 construct: Human heparinized whole blood was preincubated with test compounds; from tissue; host or cells: human heparinized whole blood
T1 sequence (P09917 1-674): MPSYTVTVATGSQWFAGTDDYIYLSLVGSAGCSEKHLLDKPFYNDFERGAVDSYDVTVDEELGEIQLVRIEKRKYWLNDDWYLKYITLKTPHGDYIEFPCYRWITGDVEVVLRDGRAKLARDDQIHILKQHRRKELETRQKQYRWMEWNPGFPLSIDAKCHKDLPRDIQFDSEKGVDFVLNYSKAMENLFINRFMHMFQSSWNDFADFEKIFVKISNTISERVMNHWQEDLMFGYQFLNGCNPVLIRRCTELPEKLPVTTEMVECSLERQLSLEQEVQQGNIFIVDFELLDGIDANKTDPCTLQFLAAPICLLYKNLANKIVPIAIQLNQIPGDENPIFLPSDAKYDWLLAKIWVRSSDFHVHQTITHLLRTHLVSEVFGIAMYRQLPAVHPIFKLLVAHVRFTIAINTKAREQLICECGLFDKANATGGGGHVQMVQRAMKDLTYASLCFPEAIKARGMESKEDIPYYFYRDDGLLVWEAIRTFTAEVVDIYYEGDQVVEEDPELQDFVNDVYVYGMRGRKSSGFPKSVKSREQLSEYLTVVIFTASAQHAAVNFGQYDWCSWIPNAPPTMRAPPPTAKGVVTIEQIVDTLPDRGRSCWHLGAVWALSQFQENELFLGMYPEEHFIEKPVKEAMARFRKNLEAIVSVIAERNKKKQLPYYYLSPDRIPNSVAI
Experiment: Inhibition of calcium ionophore A23187-induced LTB4 biosynthesis in human whole blood
Format: cell-based
Settings: human heparinized whole blood, 15 min preincubation 37° C., A23187 8.3 μM, 30 min
Description: Inhibition of leukotriene biosynthesis was evaluated in an assay, involving calcium ionophore-induced LTB4 biosynthesis expressed human whole blood. Human heparinized whole blood was preincubated with test compounds or vehicle for 15 min 37° C. followed by calcium ionophore A23187 challenge (final concentration of 8.3 μM) and the reaction terminated after 30 min by adding two volumes of methanol containing prostaglandin B2 as an internal recovery standard. The methanol extract was analyzed for LTB4 using a commercially available radioimmunoassay.

In vitro inhibitory potency against 5-lipoxygenase from stimulated LTB4 formation in human whole blood (percent inhibition) (@ 1.56 μM): 100%
Structure (SMILES): CON=C(c1cc(F)cc(OCc2ccc(N(C)C(C)=O)cc2)c1)C1CCOCC1 [Example 1, E- and Z-O-Methyl-4-[(3-(4-(N-acetyl-N-methylamino)benzyloxy)-5-fluoro-phenyl)oximinomethyl]tetrahydropyran]

In vitro inhibitory potency against 5-lipoxygenase from stimulated LTB4 formation in human whole blood (percent inhibition) (@ 0.78 μM): 100%
Structure (SMILES): CON=C(c1cc(F)cc(OCc2ccc(N(C)C(=O)N(C)C)cc2)c1)C1CCOCC1 [Example 5, E- and Z-O-Methyl-4-[(3-(4-N',N'-dimethylaminocarbonyl-N-methylamino)benzyloxy)-5-fluoro-phenyl)oximinomethyl]tetrahydropyran]

In vitro inhibitory potency against 5-lipoxygenase from stimulated LTB4 formation in human whole blood (percent inhibition) (@ 3.13 μM): 12%
Structure (SMILES): CON=C(c1cc(F)cc(OCc2cccc(N(C)C(=O)N(C)C)c2)c1)C1CCOCC1 [Example 43, E- and Z-O-Methyl-4-[(3-(3-(N',N'-dimethylaminocarbonyl-N-methylamino)-benzyloxy)-5-fluoro-phenyl)oximinomethyl]tetrahydropyran]
